This note sets out measurements from patent publication US20250304523A1, “COMBINED LACTATE AND KETONE BODY ESTERS FOR MEDICAL AND NUTRITIONAL USE” (Aarhus Universitet, priority 2022, published 2025).

Molecules are shown by their SMILES.

Common to all, as to format: in vivo
A short description of data set [1]: Quantification of BHB and lactate in rat serum after oral administration (LC-MS/MS). Particulars: compared to baseline (internal control), sampling until 180 minutes. As for the experimental part: (§1) The diLaKe ester (formula II) is diluted in physiological saline solution (0.9% NaCl) and administered as a single bolus of 2 mL, per oral dose. The dose of 4500 mg/kg is based on a previous pilot series. Placebo animals receive a single bolus of 2 mL physiological saline solution (0.9% NaCl).
Male Sprague Dawley rats are kept for acclimatization at a constant temperature of 23° C., with a 12 h light-dark cycle and with unlimited access to food and water. All animal handling is in accordance with national guidelines in Denmark and the Guide for the Care and Use of Laboratory Animals^1 and all experiments conformed to Danish Law (Act. No. 1306 of 23 Nov. 2007).
The rats are randomly selected to receive either diLaKe or placebo.
Rats are anaesthetised in an induction chamber with 8% Sevoflurane (Sevorane®, AbbVIE A/S, Copenhagen, Denmark) mixed with oxygen saturated atmospheric air (flow: 2.0 L/min).
Upon achieved anaesthesia, the rats are intubated and connected to a mechanical ventilator (Ugo Basile 7025 rodent ventilator, Comerio, Varese, Italy) with an adjusted flow of 1.0 L/min with 3.5% Sevoflurane. Body temperature is kept at a constant 37° C.±1° C. with a temperature probe (UNO, Zevenaar, Holland). A PTFE coated flexible orogastric tube (Fuchigami, Japan) is placed and the rat is left for stabilization for 15 minutes.
After stabilization a baseline blood sample is collected from the rat tail vein before administration of diLaKe or placebo.
(§2) Following the baseline blood sample, a bolus of diLaKe solution or placebo is administered via the orogastric tube to the animals. […] Serum is collected and stored at −80° C. for further analysis.
The concentration of BHB and lactate will be determined in the blood samples isolated from the rats according to example 3. Rat serum isolated every 15 minutes for a 2 hours are analyzed. The quantification is done on LC-MS/MS using isotopically labeled internal standards (7).
The LaKe ester (formula XXII and XXIII) was diluted in physiological saline solution (0.9% NaCl) and administered as a single bolus of 2 mL, per oral dose. The dose of 4500 mg/kg was based on a previous pilot series (data not shown).
Male Sprague Dawley rats (300-350 g, Taconic, Ry, Denmark) were kept for acclimatization at a constant temperature of 23° C., with a 12 h light-dark cycle and with unlimited access to food and water. […]
Based on own experience and reports by other research groups, a sample size of n=8 was considered adequate to identify a treatment effect. All results are expressed as mean±SD unless otherwise stated. Differences in concentrations were analysed using two-way ANOVA with Bonferroni post hoc correction. […]

The test system of data set [2] is N-lactoyl-phenylalanine (Lac-Phe). Put plainly: Quantification of N-lactoyl-phenylalanine (Lac-Phe) in rat serum after oral administration (LC-MS/MS). The following applies: compared to baseline (internal control). As for the experimental part:
As provided in example 21 with the difference that N-lactoyl-phenylalanine (Lac-Phe) was quantified using LC-MS/MS analyses.
LC-MS/MS analyses were carried out as follows: Forty μL rat plasma was diluted with 100 μL water in a 2 mL tube, added 115 μL methanol (Merck hypergrade) and 420 μL acetonitrile (Merck hypergrade), vortex mixed, incubated for 5 min at room temperature, and then centrifuged at 10,000×g for 5 min. Five hundred microliter supernatant was transferred to a 96-well plate (Eppendorf 1 mL deepwell), evaporated to dryness under a nitrogen gas flow at 30° C., and then reconstituted in 100 μL water with 0.1% formic acid. […]
The sample was introduced to the mass spectrometer through electrospray ionization in the negative mode with a capillary voltage of 2.2 kV and the source and desolvation temperatures were 150 and 500° C., and the nitrogen gas flows were 50 L/h (cone) and 800 L/h (desolvation). The analytes were detected in the multiple reaction monitoring mode with the following transitions (m/z) and cone voltage/collision energies (CV/CE), L-Lac-Phe (quantification ion m/z: 236.2>88.1, CV/CE: 25V/15 eV and qualifier ion m/z: 236.2>147.1, CV/CE: 25V/15 eV). […]

Another data set concerns free fatty acids (FFA). The data set is described as follows: Non-esterified free fatty acids in rat serum after oral administration (NEFA-HR (2) kit). Particulars: rats, compared to baseline (internal control), sampling until 180 minutes. The procedure: as §1, §2
The concentration of free-fatty acids (FFA) is determined in the blood samples isolated from the rats according to example 3. […]
Concentrations of non-esterified free fatty acids (NEFA) are measured using a NEFA-HR (2) kit (Wako, Chemicals Gmbh). Absorbance is measured by spectrometry (PHERAstar FS, BMG LABTECH, Ortenberg, Germany). […]
The concentration of free-fatty acids (FFA) was determined in the blood samples isolated from the rats according to example 4. […]
Concentrations of non-esterified free fatty acids (NEFA) were measured using a NEFA-HR (2) kit (Wako, Chemicals Gmbh). Absorbance was measured by spectrometry (PHERAstar FS, BMG LABTECH, Ortenberg, Germany).
The concentration of free-fatty acids (FFA) was determined in the blood samples isolated from the rats according to example 4, with the difference that KeLa (formula XXIV and XXV) was used. […]

For the compound `CC(=O)C(=O)OCC[C@@H](C)OC(=O)C(C)=O` [diPyKe, (R)-butane-1,3-diyl bis(2-oxopropanoate)], in data set [1] (single rat), the “Serum levels of BHB” value is on record as “increase in serum levels” and the “Serum levels of lactate” value is “increase in serum levels”. For the same compound, in data set [2] (single rat), the “Serum concentration of Lac-Phe” value was “increased serum concentration”.

Turning to `C[C@H](CCOC(=O)[C@H](C)O)OC(=O)[C@H](C)O` [diLaKe, (R)-butane-1,3-diyl (2S,2'S)-bis(2-hydroxypropanoate)], in data set [1] (rats), the “Serum levels of BHB” value is listed as “increase in serum levels” and the “Serum levels of lactate” value is on record as “increase in serum levels”. In addition, the “Serum concentration of Lac-Phe” value in data set [2] (rats, sampling until 180 minutes) is on record as “increased serum concentration”. Further, in the data set on free fatty acids (FFA), the “FFA-levels in rat serum” value is “decrease in FFA-levels”.
